From ChEMBL document CHEMBL4808191, “Design, synthesis and biological evaluation of novel deoxyvasicinone-indole as multi-target agents for Alzheimer's disease” (Bioorg Med Chem Lett, 2021)
Activity calls are given as the source filed them. No cut-off for these calls is given here.

Tests used:
Acetylcholinesterase = Acetylcholinesterase (Electrophorus electricus, UniProt O42275); assay: Inhibition of electric eel AChE by Ellman's method
Cholinesterase = Cholinesterase (Equus caballus, UniProt P81908)
Description: Inhibition of equine serum BuChE by Ellman's method

[1] = biological target: Amyloid-beta precursor protein (Homo sapiens, UniProt P05067)
[2] = biological target: Acetylcholinesterase (Homo sapiens) (UniProt P22303); assay: Inhibition of AChE (unknown origin)-induced amyloid beta(1 to 42) aggregation by thioflavin-T fluorescence assay; settings: concentration not given here
[3] = biological target: Acetylcholinesterase (Homo sapiens) (UniProt P22303); assay: Mixed type inhibition of AChE (unknown origin) assessed as decrease in Vmax by Lineweaver-Burk plot analysis
PC-12 = assay: Cytotoxicity against rat PC12 cells assessed as effect on cell viability at <12.5 uM by CCK8 assay; format: cell-based
[4] = biological target: Acetylcholinesterase (Homo sapiens) (UniProt P22303); assay: Mixed type inhibition of AChE (unknown origin) assessed as increase in Km by Lineweaver-Burk plot analysis
BV-2 = assay: Cytotoxicity against mouse BV-2 cells assessed as effect on cell viability at <12.5 uM by CCK8 assay; format: cell-based

Cholinesterase, sequence (P81908 whole entry): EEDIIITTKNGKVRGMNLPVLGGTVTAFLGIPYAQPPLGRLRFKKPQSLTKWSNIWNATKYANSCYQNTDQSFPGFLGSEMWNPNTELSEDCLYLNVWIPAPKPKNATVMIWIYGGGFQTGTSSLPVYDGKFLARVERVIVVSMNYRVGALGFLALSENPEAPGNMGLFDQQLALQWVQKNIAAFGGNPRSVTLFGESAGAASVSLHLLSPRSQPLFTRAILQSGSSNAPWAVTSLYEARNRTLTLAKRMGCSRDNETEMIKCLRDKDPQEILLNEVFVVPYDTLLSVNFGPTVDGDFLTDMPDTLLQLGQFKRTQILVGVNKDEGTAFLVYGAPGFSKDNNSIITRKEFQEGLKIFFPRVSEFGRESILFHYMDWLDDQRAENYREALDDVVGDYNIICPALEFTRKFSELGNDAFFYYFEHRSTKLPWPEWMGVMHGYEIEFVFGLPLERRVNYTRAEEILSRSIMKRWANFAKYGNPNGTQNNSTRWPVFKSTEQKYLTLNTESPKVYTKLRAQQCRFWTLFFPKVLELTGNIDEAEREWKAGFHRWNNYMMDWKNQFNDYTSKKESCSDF
Acetylcholinesterase (Homo sapiens), sequence (P22303 whole entry): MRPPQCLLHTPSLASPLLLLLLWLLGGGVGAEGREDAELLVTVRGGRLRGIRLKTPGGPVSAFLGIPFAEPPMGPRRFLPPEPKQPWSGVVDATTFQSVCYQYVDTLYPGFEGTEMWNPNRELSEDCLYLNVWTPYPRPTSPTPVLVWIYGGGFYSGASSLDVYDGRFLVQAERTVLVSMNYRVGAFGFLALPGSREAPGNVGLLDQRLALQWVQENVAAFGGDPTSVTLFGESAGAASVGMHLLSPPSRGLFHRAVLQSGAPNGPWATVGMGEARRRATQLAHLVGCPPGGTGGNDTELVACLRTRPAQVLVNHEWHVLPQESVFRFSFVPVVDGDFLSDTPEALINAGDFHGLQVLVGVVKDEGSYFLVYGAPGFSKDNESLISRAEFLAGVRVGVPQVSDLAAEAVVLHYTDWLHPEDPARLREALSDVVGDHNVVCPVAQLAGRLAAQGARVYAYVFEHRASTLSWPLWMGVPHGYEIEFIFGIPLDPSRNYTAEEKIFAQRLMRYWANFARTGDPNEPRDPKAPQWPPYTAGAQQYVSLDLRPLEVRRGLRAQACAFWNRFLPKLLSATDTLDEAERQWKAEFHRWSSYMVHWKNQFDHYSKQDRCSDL
Acetylcholinesterase, sequence (O42275 whole entry): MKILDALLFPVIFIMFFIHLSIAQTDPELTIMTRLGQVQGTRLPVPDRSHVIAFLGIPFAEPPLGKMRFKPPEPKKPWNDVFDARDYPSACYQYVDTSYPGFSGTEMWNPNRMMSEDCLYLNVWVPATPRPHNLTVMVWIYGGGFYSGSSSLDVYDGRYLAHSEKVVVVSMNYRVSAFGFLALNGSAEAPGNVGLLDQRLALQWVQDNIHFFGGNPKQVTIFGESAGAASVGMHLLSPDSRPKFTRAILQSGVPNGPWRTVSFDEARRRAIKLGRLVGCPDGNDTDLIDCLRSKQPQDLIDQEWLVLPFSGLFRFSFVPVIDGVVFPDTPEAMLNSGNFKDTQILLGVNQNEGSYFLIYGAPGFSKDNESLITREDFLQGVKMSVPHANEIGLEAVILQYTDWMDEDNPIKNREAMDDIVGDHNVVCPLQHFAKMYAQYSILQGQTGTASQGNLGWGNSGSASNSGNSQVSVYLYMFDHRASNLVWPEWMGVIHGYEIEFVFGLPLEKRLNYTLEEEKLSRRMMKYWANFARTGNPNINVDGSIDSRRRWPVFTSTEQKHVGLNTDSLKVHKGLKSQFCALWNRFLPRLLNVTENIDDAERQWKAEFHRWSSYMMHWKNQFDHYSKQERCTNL
Amyloid-beta precursor protein, sequence (P05067 whole entry): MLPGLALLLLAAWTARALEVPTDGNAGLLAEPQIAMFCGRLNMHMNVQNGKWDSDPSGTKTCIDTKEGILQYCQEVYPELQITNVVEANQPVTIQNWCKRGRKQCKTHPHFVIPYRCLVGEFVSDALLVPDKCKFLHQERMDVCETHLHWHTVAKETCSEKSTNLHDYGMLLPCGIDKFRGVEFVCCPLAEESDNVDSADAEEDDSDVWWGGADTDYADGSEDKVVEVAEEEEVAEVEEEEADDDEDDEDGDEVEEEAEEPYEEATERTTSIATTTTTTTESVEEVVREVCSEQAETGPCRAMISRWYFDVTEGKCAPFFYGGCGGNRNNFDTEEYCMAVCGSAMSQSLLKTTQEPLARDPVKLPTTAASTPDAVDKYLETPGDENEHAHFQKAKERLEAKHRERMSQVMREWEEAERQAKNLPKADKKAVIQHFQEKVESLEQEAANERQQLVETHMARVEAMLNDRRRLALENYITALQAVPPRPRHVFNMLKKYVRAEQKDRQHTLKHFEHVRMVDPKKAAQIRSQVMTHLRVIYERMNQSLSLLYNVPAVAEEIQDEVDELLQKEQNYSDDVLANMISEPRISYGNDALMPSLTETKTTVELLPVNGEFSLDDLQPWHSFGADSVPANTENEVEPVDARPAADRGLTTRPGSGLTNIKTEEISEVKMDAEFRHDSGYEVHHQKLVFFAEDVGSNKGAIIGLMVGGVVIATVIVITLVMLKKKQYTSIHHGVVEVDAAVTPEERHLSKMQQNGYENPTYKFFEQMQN

| Structure (SMILES) | IC50 (Acetylcholinesterase) [nM] | IC50 (Cholinesterase) [nM] | IC50 [1] [nM] | inhibition [2] [%] | inhibition [3] | Activity (PC-12) | inhibition [4] | Activity (BV-2) |
| --- | --- | --- | --- | --- | --- | --- | --- | --- |
| O=C(Nc1ccc2nc3n(c(=O)c2c1)CCC3)c1cc2ccccc2[nH]1 | 1560 | 900 | 2160 |  |  |  |  |  |
| Cc1cc2nc3n(c(=O)c2cc1NC(=O)c1cc2cc(Cl)ccc2[nH]1)CCC3 | 1080 | 4670 | 5100 |  |  |  |  |  |
| O=C(Nc1ccc2nc3n(c(=O)c2c1)CCC3)c1cc2cc(Cl)ccc2[nH]1 | 260 | 770 | 1690 | 52.1 |  |  |  |  |
| Cc1cc2nc3n(c(=O)c2cc1NC(=O)c1cc2cc(F)ccc2[nH]1)CCC3 | 1350 | 1720 | 3270 |  |  |  |  |  |
| O=C(Nc1ccc2nc3n(c(=O)c2c1)CCC3)c1cc2ccccc2s1 | 2510 | 1900 | 2300 |  |  |  |  |  |
| O=C(Nc1ccc2nc3n(c(=O)c2c1)CCC3)c1cc2cc(F)ccc2[nH]1 | 780 | 750 | 1560 | 61.8 |  |  |  |  |
| COc1ccc2[nH]c(C(=O)Nc3ccc4nc5n(c(=O)c4c3)CCC5)cc2c1 | 120 | 150 | 1210 | 80 | Active | Non-Toxic | Active | Non-Toxic |
| COc1ccc2[nH]c(C(=O)Nc3cc4c(=O)n5c(nc4cc3C)CCC5)cc2c1 | 2080 | 5230 | 6100 |  |  |  |  |  |
| O=C(/C=C/c1cc2ccccc2[nH]1)Nc1ccc2nc3n(c(=O)c2c1)CCC3 | 1650 | 4470 | 3090 |  |  |  |  |  |
| O=C(CCCc1cc2ccccc2[nH]1)Nc1ccc2nc3n(c(=O)c2c1)CCC3 | 6350 | 1600 | 5270 |  |  |  |  |  |
| O=C(Nc1ccc2nc3n(c(=O)c2c1)CCC3)c1cc2ccccc2o1 | 1510 | 1850 | 3260 |  |  |  |  |  |
| O=C(Cc1cc2ccccc2[nH]1)Nc1ccc2nc3n(c(=O)c2c1)CCC3 | 980 | 1380 | 1620 |  |  |  |  |  |
